Patent US20260000632A1, “STRUCTURALLY MODIFIED FATTY ACIDS FOR IMPROVING GLYCEMIC CONTROL AND TREATING INFLAMMATORY BOWEL DISEASE” (Northsea Therapeutics B.V., priority 2018, published 2026)

What was measured:
[1] = test system: B6.V-Lepob/Jrj mice (ob/ob); test: Glucose tolerance (0-120 mins) after 28-day treatment in ob/ob mice; format: in vivo, mouse; settings: 28 days
Experimental: This study was carried out to assess the effects of chronic treatment with Compound B or Compound A on glucose tolerance in a T2DM rodent model.
For assessing the effects of Compound B, B6.V-Lepob/Jrj mice (ob/ob) mice were administered Compound B at one of 2 doses, 125 and 250 mg/kg for 28 days. […] After the oral glucose load, plasma glucose was measured at multiple time points from and AUC (0-120 mins) for glucose was calculated.

[2] = Intestinal tissue distribution of radioactivity by quantitative whole-body autoradiography (QWBA); format: in vivo; settings: male albino rat, single oral [14C]-Compound B 50 mg/kg
Experimental: This study was conducted to determine the intestinal tissue distribution of radioactivity in male albino rats following a single oral administration of [14C]-Compound B using quantitative whole-body autoradiography (QWBA). The tissue distribution in rats following a single oral dose of [14C]-Compound B at 50 mg/kg (ca 5 MBq/kg) was studied by QWBA analysis up to 168 hours after dosing.

atherogenic lipids = settings: APOE*3.CETP mice; cited from earlier work
active GLP-1 = test: Active GLP-1 during oral glucose tolerance test (OGTT) and at 24 h in lean male SPD rats; format: in vivo, rat
Experimental: (§1) To establish the acute effects of oral administration of Compound A and Compound B upon active GLP-1 and insulin concentrations, lean (about 300 g) male Sprague-Dawley (SPD) rats were divided into groups (n=6-8) and fed 74 and 84 mg/kg body weight of Compound A or Compound B respectively, either with or without concurrent administration of a dipeptidyl peptidase 4 (DPP-4) inhibitor 60 minutes prior to an oral glucose tolerance test (OGTT) as outlined below. Parallel groups receiving either corn oil alone (corn oil+vehicle, n=10) or corn oil and a DPP-4 inhibitor (“DPP-4 i”) (corn oil+ (DPP-4 i), n=10) were included as controls. The DPP-4 inhibitor was linagliptin.
(§2) A second oral dose of 74 and 84 mg/kg bodyweight of Compound A or Compound B respectively was administered at 240 minutes and ad lib feeding was initiated. A second dose of DPP-4 inhibitor was administered at 480 mins prior to lights out. Blood samples were collected at 24 h for measurement of active GLP-1 and insulin. All values are mean, figures depict mean values (SEM).

plasma insulin = test: Plasma insulin at 24 h in lean male SPD rats; format: in vivo, rat; settings: Compound A 74 mg/kg or Compound B 84 mg/kg oral, non-significant
Experimental: as §1, §2

[3] = 1 hour, *affected by high levels of radioactivity in adjacent contents
[4] = 2 hours, *affected by high levels of radioactivity in adjacent contents
[5] = 4 hours, *affected by high levels of radioactivity in adjacent contents
[6] = 8 hours, *affected by high levels of radioactivity in adjacent contents

CC/C=C\C/C=C\C/C=C\C/C=C\C/C=C\CCCCSC(CC)(CC)C(=O)O [Compound B, 2-ethyl-2-((5Z,8Z,11 Z,14Z,17Z)-icosa-5,8,11,14,17-pentaenylthio)butanoic acid]
AUC (0-120 mins) glucose ([1]; 250 mg/kg once-daily oral gavage): potent and highly significant (p<0.001) reduction | Glucose tolerance after 2 g/kg oral glucose load ([1]; both doses, 125 and 250 mg/kg once-daily oral gavage): improved glucose tolerance | Time of peak concentrations in the small intestinal mucosa [2]: 4 h | Radioactivity concentration, Caecum mucosa ([2]; 1 hour): 1.04 μg equivalents of Compound B/g of tissue | Radioactivity concentration, Large intestine mucosa ([2]; 1 hour): 0.740 μg equivalents of Compound B/g of tissue | Radioactivity concentration, Oesophageal wall ([2]; 1 hour): 5.83 μg equivalents of Compound B/g of tissue | Radioactivity concentration, Rectum mucosa ([2]; 1 hour): 0.417 μg equivalents of Compound B/g of tissue | Radioactivity concentration, Stomach mucosa (fundus) ([2]; 1 hour): 8.08 μg equivalents of Compound B/g of tissue | Radioactivity concentration, Small intestine mucosa [2, 3]: 127* μg equivalents of Compound B/g of tissue | Radioactivity concentration, Stomach mucosa (non-fundic) [2, 3]: 17.3* μg equivalents of Compound B/g of tissue | Radioactivity concentration, Caecum mucosa ([2]; 2 hours): 1.73 μg equivalents of Compound B/g of tissue | Radioactivity concentration, Large intestine mucosa ([2]; 2 hours): 0.332 μg equivalents of Compound B/g of tissue | Radioactivity concentration, Oesophageal wall ([2]; 2 hours): 1.72 μg equivalents of Compound B/g of tissue | Radioactivity concentration, Rectum mucosa ([2]; 2 hours): 0.883 μg equivalents of Compound B/g of tissue | Radioactivity concentration, Stomach mucosa (fundus) ([2]; 2 hours): 4.31 μg equivalents of Compound B/g of tissue | Radioactivity concentration, Small intestine mucosa [2, 4]: 56.5* μg equivalents of Compound B/g of tissue | Radioactivity concentration, Stomach mucosa (non-fundic) [2, 4]: 28.1* μg equivalents of Compound B/g of tissue | Radioactivity concentration, Large intestine mucosa ([2]; 4 hours): 0.920 μg equivalents of Compound B/g of tissue | Radioactivity concentration, Oesophageal wall ([2]; 4 hours): 1.29 μg equivalents of Compound B/g of tissue | Radioactivity concentration, Rectum mucosa ([2]; 4 hours): 1.03 μg equivalents of Compound B/g of tissue | Radioactivity concentration, Stomach mucosa (fundus) ([2]; 4 hours): 5.38 μg equivalents of Compound B/g of tissue | Radioactivity concentration, Caecum mucosa [2, 5]: 93.1* μg equivalents of Compound B/g of tissue | Radioactivity concentration, Small intestine mucosa [2, 5]: 158* μg equivalents of Compound B/g of tissue | Radioactivity concentration, Stomach mucosa (non-fundic) [2, 5]: 300* μg equivalents of Compound B/g of tissue | Radioactivity concentration, Oesophageal wall ([2]; 8 hours): 5.86 μg equivalents of Compound B/g of tissue | Radioactivity concentration, Small intestine mucosa ([2]; 8 hours): 42.7 μg equivalents of Compound B/g of tissue | Radioactivity concentration, Stomach mucosa (fundus) ([2]; 8 hours): 7.84 μg equivalents of Compound B/g of tissue | Radioactivity concentration, Caecum mucosa [2, 6]: 112* μg equivalents of Compound B/g of tissue | Radioactivity concentration, Large intestine mucosa [2, 6]: 120* μg equivalents of Compound B/g of tissue | Radioactivity concentration, Rectum mucosa [2, 6]: 3.57* μg equivalents of Compound B/g of tissue | Radioactivity concentration, Stomach mucosa (non-fundic) [2, 6]: 252* μg equivalents of Compound B/g of tissue | Radioactivity concentration, Large intestine mucosa ([2]; 1 day): 2.63 μg equivalents of Compound B/g of tissue | Radioactivity concentration, Oesophageal wall ([2]; 1 day): 2.25 μg equivalents of Compound B/g of tissue | Radioactivity concentration, Rectum mucosa ([2]; 1 day): 0.870 μg equivalents of Compound B/g of tissue | Radioactivity concentration, Small intestine mucosa ([2]; 1 day): 22.6 μg equivalents of Compound B/g of tissue | Radioactivity concentration, Stomach mucosa (fundus) ([2]; 1 day): 1.15 μg equivalents of Compound B/g of tissue | Radioactivity concentration, Stomach mucosa (non-fundic) ([2]; 1 day): 3.87 μg equivalents of Compound B/g of tissue | Radioactivity concentration, Caecum mucosa ([2]; 1 day, *affected by high levels of radioactivity in adjacent contents): 113* μg equivalents of Compound B/g of tissue | Radioactivity concentration, Caecum mucosa ([2]; 3 days): 0.319 μg equivalents of Compound B/g of tissue | Radioactivity concentration, Large intestine mucosa ([2]; 3 days): 1.06 μg equivalents of Compound B/g of tissue | Radioactivity concentration, Oesophageal wall ([2]; 3 days): BLQ (Tissue concentration below lower limit of quantification) | Radioactivity concentration, Rectum mucosa ([2]; 3 days): BLQ (Tissue concentration below lower limit of quantification) | Radioactivity concentration, Small intestine mucosa ([2]; 3 days): 0.197 μg equivalents of Compound B/g of tissue | Radioactivity concentration, Stomach mucosa (fundus) ([2]; 3 days): BLQ (Tissue concentration below lower limit of quantification) | Radioactivity concentration, Stomach mucosa (non-fundic) ([2]; 3 days): 0.253 μg equivalents of Compound B/g of tissue | Radioactivity concentration, Caecum mucosa ([2]; 7 days): 0.374 μg equivalents of Compound B/g of tissue | Radioactivity concentration, Large intestine mucosa ([2]; 7 days): 0.296 μg equivalents of Compound B/g of tissue | Radioactivity concentration, Oesophageal wall ([2]; 7 days): BLQ (Tissue concentration below lower limit of quantification) | Radioactivity concentration, Rectum mucosa ([2]; 7 days): 0.641 μg equivalents of Compound B/g of tissue | Radioactivity concentration, Small intestine mucosa ([2]; 7 days): BLQ (Tissue concentration below lower limit of quantification) | Radioactivity concentration, Stomach mucosa (fundus) ([2]; 7 days): BLQ (Tissue concentration below lower limit of quantification) | Radioactivity concentration, Stomach mucosa (non-fundic) ([2]; 7 days): BLQ (Tissue concentration below lower limit of quantification) | Effect on atherogenic lipids (atherogenic lipids): significantly reduce atherogenic lipids | Increase in active GLP-1 (AUC 0-60 mins) versus corn oil+vehicle (active GLP-1; Compound B 84 mg/kg oral in combination with DPP4 inhibitor (linagliptin), OGTT, p<0.05): > 2 fold | Effect on active GLP-1 concentration at 24 h versus corn oil+vehicle (active GLP-1; in combination with DPP4 inhibitor, Compound A 74 mg/kg or Compound B 84 mg/kg oral, two doses): significantly (p<0.01) increased | Increase in plasma insulin concentration at 24 h versus corn oil+vehicle and corn oil+DPP4 inhibitor (plasma insulin; compound alone): 25% | Increase in plasma insulin concentration at 24 h versus corn oil+vehicle and corn oil+DPP4 inhibitor (plasma insulin; in combination with DPP4 inhibitor): 40%
